Columns and labels:
Vero cells = test: Cytotoxicity assay on Vero cells (microscopic morphology); assay type: cell-based; set-up: key to Cytotoxicity on Vero cells (cell sheet affected): -: Safe concentration; + 1, +2, + 3, +4: about 25, 50, 75, 100% of cell sheet was affected respectively; + 1, +2, + 3, +4: about 25, 50, 75, 100% of cell sheet was affected respectively; + 1, +2, + 3, +4: about 25, 50, 75, 100% of cell sheet was affected respectively; + 1, +2, + 3, +4: about 25, 50, 75, 100% of cell sheet was affected respectively; M: masked (color of compounds made cells unseen); settings: for Cytotoxicity on Vero cells (cell sheet affected): 24 h, morphological changes; for Safety effect on Vero cells (in words): Table 1, 24 h
Procedure: (§1) Compounds: 10 mg were dissolved in 1 mL (10% DMSO and 90% deionized water), sterilized by 1% antibiotic–antimycotic mixture and stored in −20.
(§2) Cells: Vero cell line was used. The cells were propagated in DMEM medium (Lonza, USA) supplemented with 10% fetal bovine serum (Gibco, USA), 1% antibiotic–antimycotic mixture (Lonza, USA).
Cytotoxic effect of compounds was measured by inoculation different doses of compounds on tested cells then examining them microscopically after 24 h to determine any morphological changes that appeared on cells as a result of being subjected to the compounds[46]. Vero cells were seeded onto 96-well plates, which were then incubated for the whole night. After a 24-hour incubation period at 37 °C in a humidified incubator with 5% CO2, compounds were injected at concentrations of 10, 20, 30, 40, 50, 60, 70, 80, 90, and 100 µg /100 µl. Any morphological changes were monitored under a microscope.

Cox B virus = test: Plaque reduction assay against Cox B virus; assay type: cell-based; settings: for inhibition at 20 µg/mL / inhibition at 40 µg/mL: Vero
Procedure: as §1, §2
Virus: Cox B virus was propagated and titrated to give final count of 0.9 × 10^5 viral particle/mL.
This test was done according to Tebas et al.[47], In a 12-well plate Vero cells (10^5 cells/mL) were cultivated for 1 day at 37 °C. The Cox B virus was mixed with the safe concentration of the compound and incubated for 1 h at 37 °C before being added to the cells. Following the removal of the growth media, the cells were injected with virus-extract combinations ([…]) and then rinsed with PBS (Phosphate Buffer Saline). Following a one-hour contact period for virus adsorption, the cell monolayer was supplemented with one milliliter of Dulbecco’s Modified Eagles Media (DMEM) containing 2% agarose. The plates were then allowed to solidify and incubated at 37 °C until the development of viral plaques. Formalin (10%) was added for 2 h then plates were stained with crystal violet. Control wells were included where untreated virus was incubated with Vero cells and finally plaques were counted and percentage reduction in plaques formation in comparison to control wells was recorded as following:
% inhibition = (viral count(untreated) - viral count(treated))/viral count(untreated)X100.

**Q.** For `COc1ccc(OC)c(C=C2C(=NNC(N)=S)c3ccccc3C2=NNC(N)=S)c1` [compound 3, 2,2’-((1E,3Z)−2-((E)−2,5-dimethoxybenzylidene)−1H-indene-1,3(2H)-diylidene)bis-(hydrazine-1-carbothioamide)], which “Cytotoxicity on Vero cells (cell sheet affected)” value (from here on “Cytotoxicity on Vero cells”) (Vero cells; 10 µg/100µl) is on record?
**A.** Its value is “-”.

**Q.** What about the “Cytotoxicity on Vero cells” value (Vero cells; 20 µg/100µl) of the same molecule?
**A.** The value was “-”.

**Q.** And the “Cytotoxicity on Vero cells” value (Vero cells; 30 µg/100µl)?
**A.** The value was “-”.

**Q.** And the “Cytotoxicity on Vero cells” value (Vero cells; 40 µg/100µl)?
**A.** The value was “-”.

**Q.** What about the “Cytotoxicity on Vero cells” value (Vero cells; 50 µg/100µl) of the same molecule?
**A.** The value was “-”.

**Q.** What about the “Cytotoxicity on Vero cells” value (Vero cells; 60 µg/100µl) of the same molecule?
**A.** The value was “-”.

**Q.** And the “Cytotoxicity on Vero cells” value (Vero cells; 70 µg/100µl)?
**A.** The value was “-”.

**Q.** And the “Cytotoxicity on Vero cells” value (Vero cells; 80 µg/100µl)?
**A.** Its value is “-”.

**Q.** What about the “Cytotoxicity on Vero cells” value (Vero cells; 90 µg/100µl) of the same molecule?
**A.** The value was “-”.

**Q.** What about the “Cytotoxicity on Vero cells” value (Vero cells; 100 µg/100µl) of the same molecule?
**A.** Its value is “-”.

**Q.** And the “Safety effect on Vero cells (in words)” value (Vero cells)?
**A.** The value was “higher safety”.

**Q.** And the melting point?
**A.** The melting point was 231 to 233 °C.

**Q.** What about the “Viral count (treated)” value (Cox B virus; 20 ug/mL) of the same molecule?
**A.** Its value is 1.24 × 10^7.

**Q.** What about the “Viral count (treated)” value (Cox B virus; 40 ug/mL) of the same molecule?
**A.** Its value is 0.72 × 10^7.

**Q.** What about the inhibition at 20 µg/mL (Cox B virus) of the same molecule?
**A.** Its inhibition at 20 µg/mL is 22%.

**Q.** And the inhibition at 40 µg/mL (Cox B virus)?
**A.** The inhibition at 40 µg/mL was 55%.

**Q.** Which results are given for `COc1ccc(OC)c(C=C2/C(=N/Nc3nc(C)c(/N=N/c4ccc([N+](=O)[O-])cc4)s3)c3ccccc3/C2=N\Nc2nc(C)c(/N=N/c3ccc([N+](=O)[O-])cc3)s2)c1` [7d, 2,2’-(((1E,3E)−2-(2,5-dimethoxybenzylidene)−1H-indene-1,3(2H)-diylidene)bis(hydrazin-1-yl-2-ylidene))bis(4-methyl-5-((E)-(4-nitrophenyl)diazenyl)thiazole)]?
**A.** Cytotoxicity on Vero cells (cell sheet affected) (Vero cells; 10 µg/100µl): -; Cytotoxicity on Vero cells (cell sheet affected) (Vero cells; 20 µg/100µl): -; Cytotoxicity on Vero cells (cell sheet affected) (Vero cells; 30 µg/100µl): -; Cytotoxicity on Vero cells (cell sheet affected) (Vero cells; 40 µg/100µl): -; Cytotoxicity on Vero cells (cell sheet affected) (Vero cells; 50 µg/100µl): -; Cytotoxicity on Vero cells (cell sheet affected) (Vero cells; 60 µg/100µl): -; Cytotoxicity on Vero cells (cell sheet affected) (Vero cells; 70 µg/100µl): -; Cytotoxicity on Vero cells (cell sheet affected) (Vero cells; 80 µg/100µl): -; Cytotoxicity on Vero cells (cell sheet affected) (Vero cells; 90 µg/100µl): -; Cytotoxicity on Vero cells (cell sheet affected) (Vero cells; 100 µg/100µl): -; Safety effect on Vero cells (in words) (Vero cells): higher safety; melting point: 181 to 183 °C; Viral count (treated) (Cox B virus; 20 ug/mL): 1.6 × 10^7; Viral count (treated) (Cox B virus; 40 ug/mL): 0.54 × 10^7; inhibition at 20 µg/mL (Cox B virus): 0%; inhibition at 40 µg/mL (Cox B virus): 66%

**Q.** With `COc1ccc(OC)c(C=C2/C(=N/Nc3nc(-c4ccccc4)cs3)c3ccccc3/C2=N\Nc2nc(-c3ccccc3)cs2)c1` [compound 13, 2,2’-(((1E,3E)−2-(2,5-dimethoxybenzylidene)−1H-indene-1,3(2H)-diylidene)bis(hydrazin-1-yl-2-ylidene))bis(4-phenylthiazole)] as the molecule, how does the “Cytotoxicity on Vero cells” value (Vero cells; 10 µg/100µl) read?
**A.** Its value is “-”.

**Q.** What about the “Cytotoxicity on Vero cells” value (Vero cells; 20 µg/100µl) of the same molecule?
**A.** Its value is “-”.

**Q.** What about the “Cytotoxicity on Vero cells” value (Vero cells; 30 µg/100µl) of the same molecule?
**A.** Its value is “-”.

**Q.** And the “Cytotoxicity on Vero cells” value (Vero cells; 40 µg/100µl)?
**A.** The value was “-”.

**Q.** And the “Cytotoxicity on Vero cells” value (Vero cells; 50 µg/100µl)?
**A.** Its value is “-”.

**Q.** What about the “Cytotoxicity on Vero cells” value (Vero cells; 60 µg/100µl) of the same molecule?
**A.** The value was “-”.

**Q.** And the “Cytotoxicity on Vero cells” value (Vero cells; 70 µg/100µl)?
**A.** The value was “-”.

**Q.** What about the “Cytotoxicity on Vero cells” value (Vero cells; 80 µg/100µl) of the same molecule?
**A.** Its value is “-”.

**Q.** What about the “Cytotoxicity on Vero cells” value (Vero cells; 90 µg/100µl) of the same molecule?
**A.** Its value is “-”.

**Q.** What about the “Cytotoxicity on Vero cells” value (Vero cells; 100 µg/100µl) of the same molecule?
**A.** Its value is “-”.

**Q.** What about the “Safety effect on Vero cells (in words)” value (Vero cells) of the same molecule?
**A.** The value was “higher safety”.

**Q.** What about the melting point of the same molecule?
**A.** The melting point was 193 to 195 °C.

**Q.** What about the “Viral count (treated)” value (Cox B virus; 20 ug/mL) of the same molecule?
**A.** Its value is 1.6 × 10^7.

**Q.** What about the “Viral count (treated)” value (Cox B virus; 40 ug/mL) of the same molecule?
**A.** The value was 1.6 × 10^7.

**Q.** What about the inhibition at 20 µg/mL (Cox B virus) of the same molecule?
**A.** Its inhibition at 20 µg/mL is 0%.

**Q.** What about the inhibition at 40 µg/mL (Cox B virus) of the same molecule?
**A.** Its inhibition at 40 µg/mL is 0%.

— PMC11599599, “Synthesis, characterization, molecular docking, pharmacokinetics, and molecular dynamics of new bis-thiazoles based on bis-thiosemicarbazone as anti-coxsackievirus” (Scientific Reports, 2024)
